Consider two molecules from PMC9981747, “A covalent BTK ternary complex compatible with targeted protein degradation” (Nature Communications, 2023).

Structures are written as SMILES. “And” between values parts separate entries of the source, which are not always exact repeats. Equal values may be shown once. Read-outs that look alike come from different tables or passages of the source. Where only a bound is given, the exact number is not on record here.

By DC50 is commonly meant the concentration at which degradation of the target reaches its halfway point. In general, Kd refers to the free concentration of one partner at which half of the binding sites on the other are occupied at equilibrium, for simple one-to-one binding.

The target of experiment [1] is T1, BTK^FL (Homo sapiens, UniProt Q06187+Q13490).
T1 construct: we used a full-length BTK (aa1-659) with a C terminal Tobacco Etch Virus protease (TEV) site; expressed in transfected cells; host or cells: Expi293 (HEK293)
T1 sequence (Q06187 whole entry, the tested form may be a part): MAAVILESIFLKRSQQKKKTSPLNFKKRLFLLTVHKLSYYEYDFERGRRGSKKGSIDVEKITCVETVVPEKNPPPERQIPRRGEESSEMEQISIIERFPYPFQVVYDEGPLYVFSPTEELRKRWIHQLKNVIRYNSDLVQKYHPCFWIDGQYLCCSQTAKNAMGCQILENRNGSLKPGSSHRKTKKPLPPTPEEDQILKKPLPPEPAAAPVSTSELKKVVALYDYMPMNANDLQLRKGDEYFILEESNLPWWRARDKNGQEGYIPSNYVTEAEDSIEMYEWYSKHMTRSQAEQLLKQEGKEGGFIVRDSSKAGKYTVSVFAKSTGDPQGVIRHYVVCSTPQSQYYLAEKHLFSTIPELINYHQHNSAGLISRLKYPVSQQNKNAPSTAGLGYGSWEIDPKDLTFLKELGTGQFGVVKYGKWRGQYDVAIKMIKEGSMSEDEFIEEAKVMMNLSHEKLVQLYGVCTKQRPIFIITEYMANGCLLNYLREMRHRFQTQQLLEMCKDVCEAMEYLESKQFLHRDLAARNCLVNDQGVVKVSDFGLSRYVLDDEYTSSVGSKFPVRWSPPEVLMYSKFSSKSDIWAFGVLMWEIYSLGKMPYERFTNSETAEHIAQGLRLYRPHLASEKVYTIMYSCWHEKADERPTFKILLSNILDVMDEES
T1 sequence (Q13490 whole entry, the tested form may be a part): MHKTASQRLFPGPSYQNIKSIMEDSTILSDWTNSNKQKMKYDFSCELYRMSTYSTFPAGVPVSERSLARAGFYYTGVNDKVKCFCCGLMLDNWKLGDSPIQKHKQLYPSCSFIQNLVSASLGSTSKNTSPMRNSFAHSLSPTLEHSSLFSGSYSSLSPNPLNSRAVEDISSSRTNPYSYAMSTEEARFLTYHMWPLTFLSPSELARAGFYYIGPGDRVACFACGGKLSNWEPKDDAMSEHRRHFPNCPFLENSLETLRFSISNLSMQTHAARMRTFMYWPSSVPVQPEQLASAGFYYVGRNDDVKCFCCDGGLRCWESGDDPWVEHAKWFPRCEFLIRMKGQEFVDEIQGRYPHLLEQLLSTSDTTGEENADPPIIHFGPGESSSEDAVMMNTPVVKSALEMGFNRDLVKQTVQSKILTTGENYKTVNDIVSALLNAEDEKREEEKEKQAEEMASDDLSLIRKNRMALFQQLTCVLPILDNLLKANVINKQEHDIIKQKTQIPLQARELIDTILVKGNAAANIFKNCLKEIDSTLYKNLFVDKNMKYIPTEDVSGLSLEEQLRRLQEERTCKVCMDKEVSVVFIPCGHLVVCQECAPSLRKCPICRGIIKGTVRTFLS
Briefly: Expi293 dose-dependent BTK degradation (western blot), BTK^FL co-transfected with cIAP1^FL. The format is cell-based. Particulars: for DC50: Expi293, cIAP1^FL co-transfected, ~18 h, 3 experiments, read-out: DC50 for degradation of BTK^FL (WT). The protocol: (§1) Gibco Expi293 cell line Transfection Kit (Cat.# A14524) was cultured according to the manufacturers conditions. Cells were grown at 37 °C with 5% CO2 to 4 × 10^6 cells/mL using an orbital shaker set to 95 RPM. Next cells were split to 2 × 10^6 cells/mL and transfected with plasmid DNA at a 1 µg/mL final concentration in Optimem (Gibco 31985070) using the Expifectamine 293 transfection reagent according to manufacturer’s conditions. After approximately 18 h, enhancers 1 and 2 (provided with kit). Viability was typically about 85%. When cIAP1^FL was transfected, it was detected via α-cIAP1 antibody there was typically some autoubiquitination detected, and thus often appeared as a laddered or smeared band via western blotting. When BTK^FL variants were transfected, they were detected using anti-BTK antibody (D3H5).
For dose-dependent degradation assays, cells were plated in a 24-well format and placed on a separate orbital shaker set to 115 RPM. Each well was treated with prescribed compound concentrations in the same manner as with THP-1 cells, with the exception of using Expifectamine 293 growth medium in place of RPMI 1640 complete media. After approximately 18 h post-treatment cells were harvested, centrifuged at 100 x g at 4 °C, washed twice with ice-cold PBS, and resuspended in RIPA buffer supplemented with a Roche protease inhibitor cocktail (Cat. #11873580001), and benzonase nuclease (Millipore-Sigma Cat# 70664). Each sample was incubated on ice for 30 min with periodic vortexing and centrifuged at 15 Kxg for 20 min. Clarified lysate was harvested and quantified using a Pierce BCA Assay Kit (Cat. #23225), and 20 µg of the sample was loaded into a 4–15% Criterion TGX gel (Bio-Rad, 5678085) and transferred to a nitrocellulose membrane (Life Technologies Cat. #IB23001) using an iBlot 2 (Life Technologies Cat. #IB21001). Proteins were detected using an iBind system (Life Technologies SLF2020). For BTK^T474I and BTK^T474I/C481S we inferred ligand entry into cells via the autoubiquitination and dose-dependent degradation of cIAP1^FL,[58].
Dose-dependent Degradation was analyzed using ImageJ (NIH, version 1.50i). Densiometric analysis was performed, normalized to DMSO signal, and analyzed using GraphPad Prism (Version 9.0.0 (121)). Non-linear fit one-phase decay analysis was used to obtain DC50 values. When we observed a hook effect, some points were excluded as part of the fit. In Supplementary Fig. 7B the complete curve was fit using GraphPad Prism non-linear regression bell-shaped curve where X is the concentration. However, using this method we were unable to obtain stable values for our DC50. SEM error was plotted for each point. When determining statistically significant differences, we used a two-sided student’s unpaired T-Test.

The target in experiment [2] is T2, BTK^KD and cIAP1^BUCR1 ternary complex (Homo sapiens, UniProt Q06187+Q13490).
T2 construct: BTK^KD (aa384-659) were expressed and purified as previously described; cIAP1^BUCR1 (aa260-618), and BTK^KD (aa384-659) were expressed and purified as previously described; biotin / BAP (only when BTK^KD~BCCov was the sensor ligand); made in house; host or cells: BTK^KD: SF9 insect cells; cIAP1^BUCR1: E. coli BL21-DE3
T2 sequence (Q06187 384-659): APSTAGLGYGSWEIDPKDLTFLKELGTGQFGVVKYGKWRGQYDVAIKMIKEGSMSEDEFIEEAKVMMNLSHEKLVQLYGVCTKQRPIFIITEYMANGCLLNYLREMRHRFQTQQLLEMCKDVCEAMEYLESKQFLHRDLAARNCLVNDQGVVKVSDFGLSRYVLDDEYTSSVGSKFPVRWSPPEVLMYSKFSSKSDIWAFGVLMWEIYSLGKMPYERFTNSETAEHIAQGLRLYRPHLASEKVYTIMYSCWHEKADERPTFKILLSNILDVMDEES
T2 sequence (Q13490 260-618): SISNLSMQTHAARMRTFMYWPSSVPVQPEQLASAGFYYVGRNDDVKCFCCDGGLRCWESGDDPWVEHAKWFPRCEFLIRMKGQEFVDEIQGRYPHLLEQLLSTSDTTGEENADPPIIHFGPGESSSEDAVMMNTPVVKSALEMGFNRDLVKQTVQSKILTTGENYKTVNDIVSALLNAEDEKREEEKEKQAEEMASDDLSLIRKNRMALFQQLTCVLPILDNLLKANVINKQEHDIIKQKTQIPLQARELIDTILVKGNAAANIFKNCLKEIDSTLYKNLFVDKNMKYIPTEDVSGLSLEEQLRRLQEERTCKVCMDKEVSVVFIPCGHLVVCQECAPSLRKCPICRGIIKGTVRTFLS
Briefly: Biolayer interferometry (BLI) ternary complex formation. Format: binding. As for the experimental part: We performed biolayer interferometry (BLI) with an OctetRED384 system (Data Acquisition Version 9.0.0.49) as described previously. […] Ligands were loaded onto streptavidin biosensors (ForteBio, 18-5019) for 120 s, washed in Octet buffer for 200 s, quenched with 50 μM d-biotin (Invitrogen) for 120 s, and washed in Octet buffer for 500 s. […] Excess compound was desalted using a Zeba Spin Desalting Column (Cat. #89882). The preformed binary complex was then dipped into varying concentrations of analyte diluted in Octet buffer for 300 s to determine kon, followed by a wash for 500 s to determine koff. Binding kinetics were calculated and plotted using BiaEvaluation Software (version 4.1.1). Cooperativity (α) was determined by calculating the ratio of binary Kd to ternary complex Kd.
On the technique in general: Biolayer interferometry detects binding as a change in optical thickness at a sensor tip.

In experiment [3] the target is T1, BTK^FL. As to the kind of experiment: Expi293 time-dependent degradation of BTK^FL. The format is cell-based. Particulars: 5 µM; for BTK^FL (WT) blot signal normalized to time 0: replicates. The protocol: as §1
For covalent modification detection assays, the compound was added to Expi293 cells after enhancer treatment. At each timepoint 10 mL of cells were harvested, rapidly cooled to 4 °C in an ice bath, and centrifuged at 100 x g at 4 °C for 5 min. The pellet was washed twice with ice-cold PBS, snap-frozen in liquid nitrogen, and stored at −80 °C. Each pellet was resuspended in 0.1 mL ice-cold RIPA Buffer supplemented with 40 µM BCNC (to outcompete any remaining BCCov), protease inhibitor, and benzonase, and sonicated with 10 brief blasts at power 20. Lysate was centrifuged at 15 K x g for 20 min at 4 °C and prepared for western blotting as detailed above. When samples were evaluated for covalent adduct formation, a purification step was required. Briefly, the ~1 mL of clarified lysate was added to 9 mL of FLAG binding buffer (25 mM HEPES 7.5, 300 mM NaCl, 10% glycerol). These samples were incubated with 250 µL of anti-FLAG M2 affinity resin (Millipore-Sigma Cat. # A2220) for 3 h at 4 °C with gentle nutation. Samples were washed via gravity column filtration and eluted with 0.2 mg/ml FLAG Peptide (DYKDDDDK, CPC Scientific Peptide Company). Each sample was concentrated to 0.1 mg/mL using an Amicon Ultra-15 Centrifugal filter with a 50 kDa MWCO (Millipore-Sigma Cat. # UFC905024). Details on mass spectrometry analysis are below.

Turning to `CNC(C)C(=O)NC(C(=O)N1CC(NC(=O)COCCN2CCN(CCCC(=O)N3CCCC(n4nc(-c5ccc(Oc6ccccc6)cc5)c5c(N)ncnc54)C3)CC2)CC1C(=O)NC1CCCc2ccccc21)C1CCCCC1` (stereo not shown) [BCNC], the “WT BTK blot signal normalized to DMSO” value at BTK^FL [1] (0.004883 uM, replicates) was 0.92 and 1.00 (2×); at BTK^FL [1] (0.009766 uM, replicates), 0.74 and 1.02 and 0.84; on BTK^FL [1] (0.019531 uM, replicates), 0.72 and 0.83 and 0.75; at BTK^FL [1] (0.039063 uM, replicates) it was 0.52 and 0.87 and 0.78; at BTK^FL [1] (0.078125 uM, replicates) it was 0.38 and 0.65 and 0.51; on BTK^FL [1] (0.15625 uM, replicates), 0.29 and 0.54 and 0.30. Also, the “WT BTK blot signal normalized to DMSO” value on BTK^FL [1] (0.3125 uM, replicates) is 0.25 and 0.36 and 0.30; on BTK^FL [1] (0.625 uM, replicates), 0.21 and 0.32 and 0.16; on BTK^FL [1] (1.25 uM, replicates), 0.2 and 0.35 and 0.15; at BTK^FL [1] (2.5 uM, replicates) it was 0.24 and 0.40 and 0.29; at BTK^FL [1] (5 uM, replicates), 0.68 and 0.77 and 0.51. Further, at BTK^FL [1], the 50% degradation concentration (DC50) was determined as 149 ± 70 nM. In addition, the dissociation constant (Kd) in experiment [2] ([cIAP1^BUCR1-BCNC] binary complex binding BTK^KD, read-out: Kd, ternary complex) was 49.8 nM. The “BTK^FL (WT) blot signal normalized to time 0” value at BTK^FL [3] (0.5 h) is 0.49 and 0.76 and 0.55; at BTK^FL [3] (1 h), 0.28 and 0.42 and 0.35; on BTK^FL [3] (2 h) it was 0.16 and 0.20 and 0.21; on BTK^FL [3] (3.5 h), 0.06 (2×) and 0.10; at BTK^FL [3] (5.5 h), 0.056 and 0.10 and 0.08; at BTK^FL [3] (7 h) it was 0.00935 and 0.01 and 0.09. For the same molecule, the “BTK^FL (WT) blot signal normalized to time 0” value at BTK^FL [3] (17 h) is 0.00 and 0.02 (2×).

On to `CNC(C)C(=O)NC(C(=O)N1CC(NC(=O)COCCN2CCN(CC=CC(=O)N3CCCC(n4nc(-c5ccc(Oc6ccccc6)cc5)c5c(N)ncnc54)C3)CC2)CC1C(=O)NC1CCCc2ccccc21)C1CCCCC1` (stereo not shown) [BCCov], for which the “WT BTK blot signal normalized to DMSO” value on BTK^FL [1] (0.004883 uM, replicates) was 0.92 and 0.99 and 1.00; on BTK^FL [1] (0.009766 uM, replicates), 0.74 and 1.02 and 0.84; on BTK^FL [1] (0.019531 uM, replicates) it was 0.72 and 0.83 and 0.75; at BTK^FL [1] (0.039063 uM, replicates) it was 0.52 and 0.87 and 0.78; at BTK^FL [1] (0.078125 uM, replicates), 0.38 and 0.65 and 0.51; at BTK^FL [1] (0.15625 uM, replicates), 0.29 and 0.54 and 0.30. Besides, the “WT BTK blot signal normalized to DMSO” value at BTK^FL [1] (0.3125 uM, replicates) is 0.25 and 0.36 and 0.30; at BTK^FL [1] (0.625 uM, replicates) it was 0.21 and 0.32 and 0.16; at BTK^FL [1] (1.25 uM, replicates), 0.20 and 0.35 and 0.15; on BTK^FL [1] (2.5 uM, replicates) it was 0.24 and 0.40 and 0.29; at BTK^FL [1] (5 uM, replicates) it was 0.68 and 0.77 and 0.51. Moreover, the “BTK level normalized to untreated BTK^FL, Figure 1B Lane 2” value on BTK^FL [1] (5 µM, BTK^FL without cIAP1^FL, replicates) is 1.30 and 0.97 and 0.91. Also, on BTK^FL [1] (BTK^FL transfected without cIAP1^FL (Fig. 1B, lane 2)), the “BTK degradation without cIAP1^FL” value is given as “no observable ligand-induced BTK degradation”. In addition, the DC50 on BTK^FL [1] was 57.2 ± 28 nM. Moreover, the “hook effect in degradation profile” value at BTK^FL [1] (wt BTK^FL, Expi293) was “partial hook effect”. In experiment [2], this molecule displayed a Kd of 72.5 nM. Also, the “cooperativity factor α = Kd binary/Kd ternary” value in experiment [2] (upper limit) is given as no more than 0.2. The “BTK^FL (WT) blot signal normalized to time 0” value at BTK^FL [3] (0.5 h) is 0.46 and 0.65 and 0.56; at BTK^FL [3] (1 h), 0.26 and 0.42 and 0.40; at BTK^FL [3] (2 h), 0.14 and 0.25 and 0.20; on BTK^FL [3] (3.5 h), 0.0842 and 0.15 and 0.20; at BTK^FL [3] (5.5 h), 0.12 and 0.14 and 0.13; on BTK^FL [3] (7 h), 0.07 and 0.02 and 0.03. On BTK^FL [3] (17 h), the “BTK^FL (WT) blot signal normalized to time 0” value was 0.00 (2×) and 0.02. The “time at which degradation reaches a plateau” value on BTK^FL [3] (BTK^FL with cIAP1^FL) is no more than 7 h. Moreover, the “time at which degradation starts” value on BTK^FL [3] (BTK^FL with cIAP1^FL) worked out at 30 min.
